Key:
Z. mays = assay: Root hair elongation in maize under insufficient phosphate; type: in vivo, Zea mays; settings: various nutrient levels, shown under insufficient phosphate conditions, vs DMSO (FIG. 4)
From the text: FIG. 4 is a boxplot graph representing the distribution of maximum root hair length in the root apical zone of Z. mays with the control solvent DMSO, strigolactone molecule MBS-127 in DMSO, and strigolactone molecule MBS-128 in DMSO. Stars indicate significant differences relative to the DMSO control (*: adjustedp-value <0.1; p-values were adjusted for multiple-hypothesis testing using a Bonferroni correction). Representative images show root hairs in the root apical zone of plants treated with the control solvent DMSO, strigolactone molecule MBS-127 in DMSO, and strigolactone molecule MBS-128 in DMSO. Scale bars equal 10 mm.

[1] = test system: A. thaliana Columbia (Col-0) seedlings; assay: Desiccation stress survival assay of seedlings; type: in vivo, Arabidopsis thaliana; settings: 50 μM in media, 0.4% DMSO, three days, 4 hours desiccation, seven days recovery (FIG. 5)
From the text: Post germination desiccation is an extreme form of dehydration which can be used as a survival assay for testing abiotic stress tolerance in plants. While desiccation stress is distinct from the gradual onset of drought typically experienced in an agricultural setting, the response in the plant has many commonalities across both cases (Fernando, V. C., & Schroeder, D. F. “Role of ABA in Arabidopsis Salt, Drought, and Desiccation Tolerance,” (2016), pp. 507-518), and increased tolerance in one case can often predict tolerance in the other.
In this experiment sterilized and stratified seeds of the A. thaliana Columbia (Col-0) were planted on growth media (Murashige and Skoog (MS) M404 with vitamins (2.2 g/L), 0.5% sucrose, 0.05% IVIES hydrate, 0.6% PhytoBlend™) and grown for nine days in a growth chamber with continuous light at 22° C. The seedlings were then transplanted to same media supplemented with the control solvent DMSO, strigolactone molecule MBS-127 in DMSO, or strigolactone molecule MBS-128 in DMSO. The final concentration of DMSO in the media was 0.4% and the concentration of MBS-127 and MBS-128 was 50 μM. After three days of growth on the treatment media the seedlings were photographed and then transplanted to dry filter paper and subjected to 4 hours of desiccation stress. […]

[2] = test system: Zea mays Dekalb Hybrid DKC68-26RIB; assay: Stomatal conductance (LI-6400XT) of sprayed maize plants; type: in vivo; settings: EC formulation plus 1% Crop Oil Concentrate, foliar spray 2 grams/acre, measured next morning (FIG. 7)
From the text: FIG. 7 is a boxplot representing the distribution of stomatal conductance (mmol/m^2/s) measurements taken via LI-6400XT on Zea mays plants treated with EC formulation blank and Crop Oil Concentrate (control; EC) or strigolactone molecule MBS-127, EC formulation blank and Crop Oil Concentrate (MBS-127+EC). […] Letters define significant classes with P<0.05. Points show observations falling outside of the whiskers and have been jittered along the x-axis to avoid overlap.
Water transport is closely intertwined with many vital plant processes, including photosynthesis, translocation, mineral nutrition, growth, and plays a critical role in defining the yield potential of a crop field (Azizian, A., & Sepaskhah, A. R. “Maize response to water, salinity and nitrogen levels: yield-water relation, water-use efficiency and water uptake reduction function,” International Journal of Plant Production (2014) Vol. 8(2), pp. 183-214). The compounds of formulas described herein induce increased leaf conductance in the leaves of intact Z. mays plants (FIG. 7).
In this experiment maize (Zea mays Dekalb Hybrid DKC68-26RIB) plants were grown in a greenhouse in one-gallon pots filled with Sunshine #2 soil-less growing mix. […] Leaves were acclimated within the LI6400XTR sensor head until gas exchange measurements had stabilized for conductance and then the conductance for that leaf determined.

SMILES	root hair elongation (maximum root hair length in the root apical zone) (Z. mays)	survival and vigor of seedlings exposed to severe desiccation stress [1]	increase in stomatal conductance compared to the control group [2]
COC(=O)/C=C/OC1C=C(C)C(=O)O1 (centres unmarked) [MBS-127, 3-(4-Methyl-5-oxo-2,5-dihydro-furan-2-yloxy)-acrylic acid methyl ester]	induce root hair elongation	increase the survival and vigor	60%
COC(=O)/C=C/OC1(C)C=C(C)C(=O)O1 (centres unmarked) [MBS-128, methyl (E)-3-((2,4-dimethyl-5-oxo-2,5-dihydrofuran-2-yl)oxy)acrylate]	induce root hair elongation	increase the survival and vigor	

Source: patent publication US20230406821A1, “STRIGOLACTONE DERIVATIVES” (Plant Response, Inc., priority 2017, published 2023)
